Assays:
Format in all cases: cell-based, S. cerevisiae
Conditions in all cases: 1 uM small molecule, difference to activity without small molecule, average of two trials
[1] = molecular target: T1, LexA (GSG)2mDHFR / B42 rGR2 (UniProt P00375+P06536, C656G/F620S); assay: β-galactosidase activity assay, strain V502Y
T1 construct: rat Glucocorticoid Receptor (aa 524-795) with point mutations; expressed in transfected cells; host or cells: S. cerevisiae FY250
T1 sequence (P00375 1-187): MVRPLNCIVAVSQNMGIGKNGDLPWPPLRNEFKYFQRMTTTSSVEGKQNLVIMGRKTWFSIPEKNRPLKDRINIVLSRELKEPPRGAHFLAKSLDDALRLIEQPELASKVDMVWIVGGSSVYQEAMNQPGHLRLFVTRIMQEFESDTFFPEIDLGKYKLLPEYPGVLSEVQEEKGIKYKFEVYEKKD
T1 sequence (P06536 524-795 F620S/C656G limits assumed): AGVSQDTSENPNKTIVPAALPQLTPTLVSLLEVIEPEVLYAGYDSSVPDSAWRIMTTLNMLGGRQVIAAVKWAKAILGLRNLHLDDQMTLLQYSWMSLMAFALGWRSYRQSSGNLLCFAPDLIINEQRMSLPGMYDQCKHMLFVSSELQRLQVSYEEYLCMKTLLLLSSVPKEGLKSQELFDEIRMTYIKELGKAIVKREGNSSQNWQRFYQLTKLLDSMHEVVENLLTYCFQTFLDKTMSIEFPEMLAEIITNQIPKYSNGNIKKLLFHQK
From the text: (§1) Table III explains the components of each strain. Each strain was constructed from the parent yeast strain FY250 and also contains the pMW106 plasmid, which has the LacZ reporter gene that is turned on only in when the LexA DNA binding domain and the B42 activation are brought in tot he vicinity of each other. We use several different strains because we use DHFR from two different species, mDHFR is from murine, while eDHFR is from E. coli. We are asl oable to switch the small moleculebinding domains. For example, the strain containing LexA-eDHFR with B42-rGH2 is a different strain and behaves differently from the strain containing LexA-rGR2 with B42-eDHFR. We also put in short 6 amino acid linkers between the two domains of our protein chimeras and thus these are different strain as well.
(§2) The results in Table IV are averages of two separate trials. Each strain was examined with small molecules and without small molecules. The absolute activity is given as the β-galactisidase activity […]. The average β-galactosidse activity for a strain without small molecule (i.e. the negative control) was about 100 β-galactosidase units.

LexA eDHFR / B42 rGR2 = molecular target: T2, LexA eDHFR / B42 rGR2 (UniProt P06536+P0ABQ4, C656G/F620S); assay: β-galactosidase activity assay, strain V493Y
T2 construct: rat Glucocorticoid Receptor (aa 524-795) with point mutations; expressed in transfected cells; host or cells: S. cerevisiae FY250
T2 sequence (P0ABQ4 1-159): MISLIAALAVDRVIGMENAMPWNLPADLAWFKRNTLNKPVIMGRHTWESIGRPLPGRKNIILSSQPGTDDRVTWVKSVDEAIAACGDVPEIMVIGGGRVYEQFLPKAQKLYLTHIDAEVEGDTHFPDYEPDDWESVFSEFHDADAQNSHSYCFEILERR
T2 sequence (P06536 524-795 F620S/C656G limits assumed): T1 sequence (P06536 524-795 F620S/C656G limits assumed)
From the text: as §1, §2

[2] = molecular target: T3, LexA mDHFR / B42 (GSG)rGR2 (UniProt P00375+P06536, C656G/F620S); assay: β-galactosidase activity assay, strain V497Y
T3 construct: rat Glucocorticoid Receptor (aa 524-795) with point mutations; expressed in transfected cells; host or cells: S. cerevisiae FY250
T3 sequence (P00375 1-187): T1 sequence (P00375 1-187)
T3 sequence (P06536 524-795 F620S/C656G limits assumed): T1 sequence (P06536 524-795 F620S/C656G limits assumed)
From the text: as §1, §2

[3] = molecular target: T4, LexA (GSG)2eDHFR / B42 rGR2 (UniProt P06536+P0ABQ4, C656G/F620S); assay: β-galactosidase activity assay, strain V498Y
T4 construct: rat Glucocorticoid Receptor (aa 524-795) with point mutations; expressed in transfected cells; host or cells: S. cerevisiae FY250
T4 sequence (P0ABQ4 1-159): T2 sequence (P0ABQ4 1-159)
T4 sequence (P06536 524-795 F620S/C656G limits assumed): T1 sequence (P06536 524-795 F620S/C656G limits assumed)
From the text: as §1, §2

[4] = molecular target: T5, LexA (GSG)2rGR2 / B42 (GSG)2eDHFR (UniProt P06536+P0ABQ4, C656G/F620S); assay: β-galactosidase activity assay, strain V510Y
T5 construct: rat Glucocorticoid Receptor (aa 524-795) with point mutations; expressed in transfected cells; host or cells: S. cerevisiae FY250
T5 sequence (P06536 524-795 F620S/C656G limits assumed): T1 sequence (P06536 524-795 F620S/C656G limits assumed)
T5 sequence (P0ABQ4 1-159): T2 sequence (P0ABQ4 1-159)
From the text: as §1, §2

[5] = molecular target: T6, LexA (GSG)2mDHFR / B42 gly6rGR2 (UniProt P00375+P06536, C656G/F620S); assay: β-galactosidase activity assay, strain V503Y
T6 construct: expressed in transfected cells; host or cells: S. cerevisiae FY250 with pMW106 lacZ reporter
T6 sequence (P00375 1-187): T1 sequence (P00375 1-187)
T6 sequence (P06536 524-795 F620S/C656G limits assumed): T1 sequence (P06536 524-795 F620S/C656G limits assumed)
From the text: as §1, §2

[6] = molecular target: T7, LexA rGR2 / B42 (GSG)2mDHFR (UniProt P00375+P06536, C656G/F620S); assay: β-galactosidase activity assay, strain V511Y
T7 construct: expressed in transfected cells; host or cells: S. cerevisiae FY250 with pMW106 lacZ reporter
T7 sequence (P06536 524-795 F620S/C656G limits assumed): T1 sequence (P06536 524-795 F620S/C656G limits assumed)
T7 sequence (P00375 1-187): T1 sequence (P00375 1-187)
From the text: as §1, §2

LexA mDHFR / B42 rGR2 = molecular target: T8, LexA mDHFR / B42 rGR2 (UniProt P00375+P06536, C656G/F620S); assay: β-galactosidase activity assay, strain V495Y
T8 construct: rat Glucocorticoid Receptor (aa 524-795) with point mutations; expressed in transfected cells; host or cells: S. cerevisiae FY250
T8 sequence (P00375 1-187): T1 sequence (P00375 1-187)
T8 sequence (P06536 524-795 F620S/C656G limits assumed): T1 sequence (P06536 524-795 F620S/C656G limits assumed)
From the text: as §1, §2

[7] = molecular target: T9, LexA (GSG)2eDHFR / B42 (GSG)rGR2 (UniProt P06536+P0ABQ4, C656G/F620S); assay: β-galactosidase activity assay, strain V501Y
T9 construct: rat Glucocorticoid Receptor (aa 524-795) with point mutations; expressed in transfected cells; host or cells: S. cerevisiae FY250
T9 sequence (P0ABQ4 1-159): T2 sequence (P0ABQ4 1-159)
T9 sequence (P06536 524-795 F620S/C656G limits assumed): T1 sequence (P06536 524-795 F620S/C656G limits assumed)
From the text: as §1, §2

LexA rGR2 / B42 eDHFR = molecular target: T10, LexA rGR2 / B42 eDHFR (UniProt P06536+P0ABQ4, C656G/F620S); assay: β-galactosidase activity assay, strain V505Y
T10 construct: rat Glucocorticoid Receptor (aa 524-795) with point mutations; expressed in transfected cells; host or cells: S. cerevisiae FY250
T10 sequence (P06536 524-795 F620S/C656G limits assumed): T1 sequence (P06536 524-795 F620S/C656G limits assumed)
T10 sequence (P0ABQ4 1-159): T2 sequence (P0ABQ4 1-159)
From the text: as §1, §2

C[C@@H]1C[C@H]2C3CCC4=CC(=O)C=C[C@]4(C)[C@@]3(F)[C@@H](O)C[C@]2(C)[C@@]1(O)C(=O)NCCSCCCCCCCCSCC[C@H](NC(=O)c1ccc(N(C)Cc2cnc3nc(N)nc(N)c3n2)cc1)C(=O)O (stereo partly shown) [D8M]
B-gal activity [1]: 30 β-galactosidase units
B-gal activity (LexA eDHFR / B42 rGR2): 5555 β-galactosidase units
B-gal activity [2]: 24 β-galactosidase units
B-gal activity [3]: 5442 β-galactosidase units
B-gal activity [4]: 3163 β-galactosidase units
B-gal activity [5]: 45 β-galactosidase units
B-gal activity [6]: −129 β-galactosidase units
B-gal activity (LexA mDHFR / B42 rGR2): 38 β-galactosidase units
B-gal activity [7]: 6660 β-galactosidase units
B-gal activity (LexA rGR2 / B42 eDHFR): 2532 β-galactosidase units

— patent US7419780B2, “Methods and assays for screening protein targets” (The Trustees of Columbia University in the City of New York, priority 2000, dated 2008)
